ChEMBL document CHEMBL4823278, “Metal binding 6-arylthio-3-hydroxypyrimidine-2,4-diones inhibited human cytomegalovirus by targeting the pUL89 endonuclease of the terminase complex” (Eur J Med Chem, 2021)

Key:
HEL 299 [1] = conditions: human, hel 299, 168 h
[2] = target: T1, Tripartite terminase subunit 3 (Human betaherpesvirus 5) (UniProt P16732); assay: Inhibition of human cytomegalovirus pUL89 endonuclease activity using 60 bp dsDNA substrate at 20 uM incubated for 30 mins by ELISA-based biochemical assay relative to control
T1 sequence (whole entry): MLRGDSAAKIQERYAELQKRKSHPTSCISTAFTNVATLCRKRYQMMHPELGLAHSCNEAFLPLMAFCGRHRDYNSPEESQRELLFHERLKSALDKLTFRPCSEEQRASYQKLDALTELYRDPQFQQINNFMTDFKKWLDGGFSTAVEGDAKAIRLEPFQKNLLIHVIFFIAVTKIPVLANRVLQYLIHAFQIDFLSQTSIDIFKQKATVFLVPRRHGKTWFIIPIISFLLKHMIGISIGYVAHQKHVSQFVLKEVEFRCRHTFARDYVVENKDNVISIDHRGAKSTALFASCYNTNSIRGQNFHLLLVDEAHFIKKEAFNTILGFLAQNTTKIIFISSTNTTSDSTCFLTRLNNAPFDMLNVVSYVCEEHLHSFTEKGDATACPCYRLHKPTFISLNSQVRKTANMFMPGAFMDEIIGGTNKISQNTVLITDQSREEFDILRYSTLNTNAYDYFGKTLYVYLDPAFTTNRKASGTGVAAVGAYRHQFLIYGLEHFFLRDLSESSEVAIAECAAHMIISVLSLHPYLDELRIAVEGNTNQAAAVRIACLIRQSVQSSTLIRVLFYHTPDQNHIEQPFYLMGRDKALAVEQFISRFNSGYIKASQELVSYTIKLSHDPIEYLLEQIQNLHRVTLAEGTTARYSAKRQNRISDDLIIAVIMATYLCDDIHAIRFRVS

Human betaherpesvirus 5 [3] = assay type: functional; conditions: Human betaherpesvirus 5, HEL 299, time 168 hrs
[4] = (§1) Cytotoxicity against human HEL 299 cells assessed as cell viability at 10 uM incubated for 168 hrs by MTS-based tetrazolium reduction assay relative to control; conditions: HEL 299 cells, read-out: Activity
[5] = Apparent permeability of the compound incubated for 5 hrs by LC-MS/MS analysis based PAMPA method; assay type: ADME; conditions: for Papp: pampa, 5 h
[6] = target: T1, Tripartite terminase subunit 3 (Human betaherpesvirus 5); conditions: dose 20.0 µM
[7] = target: T2, Tripartite terminase subunit 3 (Human betaherpesvirus 5, UniProt P16732)
T2 sequence (P16732 whole entry): T1 sequence (whole entry)
Description: Inhibition of human cytomegalovirus pUL89 endonuclease activity using 60 bp dsDNA substrate incubated for 30 mins by ELISA-based biochemical assay

Human betaherpesvirus 5 [8] = assay type: functional, cell-based; conditions: Human betaherpesvirus 5, HEL 299, 168 h
HEL 299 [9] = assay: as §1; conditions: hel 299, 168 h, 10 µM

Compound | inhibition [2] [%] | inhibition at 10 µM (Human betaherpesvirus 5 [3]) [%] | viability at 168 h, 10 µM [4] [%] | further results
Nc1nc(O)c2ncn(COC(CO)CO)c2n1 [GANCICLOVIR] | – | – | – | CC50 (HEL 299 [1]): > 50 µM
O=c1cc(Sc2cccc(-c3ccc(C(F)(F)F)cc3)c2)[nH]c(=O)n1O | 22 | 70 | 110 | –
Cn1c(Sc2ccc(Cl)cc2)cc(=O)n(O)c1=O | – | 35 | 132 | Papp [5]: 4.5 10^-6 cm/s
O=c1cc(Sc2ccc(O)cc2)[nH]c(=O)n1O | 27 | 1 | 118 | –
CCn1c(Sc2ccccc2Br)cc(=O)n(O)c1=O | 64 | 100 | 16 | –
O=c1cc(Sc2ccc(-c3ccc(C(F)(F)F)cc3)cc2)[nH]c(=O)n1O | 12 | 84 | 107 | –
O=c1cc(Sc2ccc(F)cc2)[nH]c(=O)n1O | 54 | -2.3 | 118 | –
CCn1c(Sc2cccc(F)c2)cc(=O)n(O)c1=O | 34 | 12 | 126 | Papp [5]: 3.4 10^-6 cm/s; ΔTm [6]: 0.86 °C; IC50 [7]: 23 µM
O=c1cc(Sc2ccc(C(F)(F)F)cc2)[nH]c(=O)n1O | 16 | -9 | 119 | –
CCn1c(Sc2ccc(F)cc2)cc(=O)n(O)c1=O | – | 67 | 114 | Papp [5]: 4.1 10^-6 cm/s
Cn1c(Sc2ccc(C(F)(F)F)cc2)cc(=O)n(O)c1=O | – | 50 | 107 | –
Cn1c(Sc2cccc(C(F)(F)F)c2)cc(=O)n(O)c1=O | – | 68 | 99 | –
CCn1c(Sc2ccc(Cl)cc2)cc(=O)n(O)c1=O | 76 | 98 | 40 | –
O=c1cc(Sc2cccc(-c3cccc(C(F)(F)F)c3)c2)[nH]c(=O)n1O | 20 | 33 | 118 | –
COc1cccc(-c2ccc(Sc3cc(=O)n(O)c(=O)[nH]3)cc2)c1 | 11 | 71 | 107 | –
Cn1c(Sc2cccc(Br)c2)cc(=O)n(O)c1=O | – | 100 | 14 | ΔTm [6]: 0.76 °C; IC50 [7]: 6.5 µM
CCc1ccccc1Sc1cc(=O)n(O)c(=O)n1C | – | 87 | 108 | Papp [5]: 5.8 10^-6 cm/s
COc1ccc(-c2ccc(Sc3cc(=O)n(O)c(=O)[nH]3)cc2)cc1 | 22 | 80 | 94 | Papp at 5 h ([5]; PAMPA): 1.1 ×10⁻⁶ cm/s; CC50 (HEL 299 [1]): 20.3 µM; EC50 (Human betaherpesvirus 5 [8]): 7.2 µM
O=c1cc(Sc2ccc([N+](=O)[O-])cc2)[nH]c(=O)n1O | 58 | -5.1 | 115 | Papp [5]: 0.017 10^-6 cm/s; ΔTm [6]: 2.8 °C; IC50 [7]: 3.6 µM
O=C(O)c1cn(Cc2ccc(Cl)c(F)c2)cc(O)c1=O | – | – | – | ΔTm [6]: 2.4 °C
O=c1cc(Sc2ccc(-c3ccc(Cl)cc3)cc2)[nH]c(=O)n1O | 11 | 82 | 102 | –
O=c1cc(Sc2ccc(-c3ccc(F)cc3)cc2)[nH]c(=O)n1O | 19 | 79 | 99 | –
O=c1cc(Sc2cccc(-c3ccc(Cl)cc3)c2)[nH]c(=O)n1O | – | 81 | 100 | –

Compound | inhibition [2] [%] | inhibition at 10 µM (Human betaherpesvirus 5 [3]) [%] | viability at 168 h, 10 µM [4] [%] | further results
Cn1c(Sc2ccc(F)cc2)cc(=O)n(O)c1=O | 90 | 0 | 117 | Papp [5]: 3 10^-6 cm/s; ΔTm [6]: 0.86 °C; IC50 [7]: 12 µM
Cc1ccc(-c2ccc(Nc3cc(=O)n(O)c(=O)n3C)cc2)cc1 | – | – | – | ΔTm [6]: -2.8 °C; IC50 [7]: 3.3 µM
Cn1c(Sc2cccc(F)c2)cc(=O)n(O)c1=O | 37 | -3.8 | 125 | Papp [5]: 2.5 10^-6 cm/s; ΔTm [6]: 0.56 °C; IC50 [7]: 24 µM
O=c1cc(Sc2cccc(F)c2)[nH]c(=O)n1O | 40 | 83 | – | Activity (HEL 299 [9]): 65%
O=c1cc(Sc2cccc(-c3ccc(F)cc3)c2)[nH]c(=O)n1O | 10 | 19 | 100 | –
CCn1c(Sc2ccccc2F)cc(=O)n(O)c1=O | 75 | -0.7 | – | Activity (HEL 299 [9]): 124%
Cn1c(Sc2cccc3ccccc23)cc(=O)n(O)c1=O | – | 98 | 111 | Papp [5]: 5.1 10^-6 cm/s
O=c1cc(Sc2cccc(Br)c2)[nH]c(=O)n1O | 16 | -6 | 123 | –
Cn1c(Sc2ccccc2)cc(=O)n(O)c1=O | 65 | 21 | 115 | –
COc1ccc(-c2cccc(Sc3cc(=O)n(O)c(=O)[nH]3)c2)cc1F | 16 | -11 | 106 | –
CCn1c(Sc2ccc(Br)cc2)cc(=O)n(O)c1=O | 66 | 100 | 16 | –
COc1cccc(Sc2cc(=O)n(O)c(=O)[nH]2)c1 | 92 | -13 | 114 | Papp [5]: 0.21 10^-6 cm/s; ΔTm [6]: 1.8 °C; IC50 [7]: 1.9 µM
O=c1cc(Sc2ccccc2)[nH]c(=O)n1O | 30 | -16 | 108 | –
O=c1cc(Sc2ccccc2Br)[nH]c(=O)n1O | 21 | -14 | 101 | –
Cn1c(Sc2ccccc2Br)cc(=O)n(O)c1=O | – | – | 117 | –
Cn1c(Sc2ccc(Br)cc2)cc(=O)n(O)c1=O | – | 57 | 113 | –
Cn1c(Sc2cccc(Cl)c2)cc(=O)n(O)c1=O | 37 | 74 | 117 | CC50 (HEL 299 [1]): 23.1 µM; EC50 (Human betaherpesvirus 5 [8]): 4.7 µM
COc1cccc(Sc2cc(=O)n(O)c(=O)n2C)c1 | – | 91 | 135 | Papp [5]: 2.4 10^-6 cm/s
Cc1ccc(-c2cccc(Nc3cc(=O)n(O)c(=O)[nH]3)c2)c(C)c1 | – | – | – | ΔTm [6]: -2.2 °C; IC50 [7]: 3.5 µM
CCn1c(Sc2cccc(Br)c2)cc(=O)n(O)c1=O | 71 | 100 | 7 | –
CCc1ccc(Sc2cc(=O)n(O)c(=O)n2C)cc1 | 67 | 21 | 121 | Papp [5]: 6.6 10^-6 cm/s; ΔTm [6]: 0.29 °C; IC50 [7]: 11.8 µM
O=c1cc(Sc2ccc(Br)cc2)[nH]c(=O)n1O | 14 | 12 | 129 | –
CCn1c(Sc2cccc(Cl)c2)cc(=O)n(O)c1=O | 59 | 101 | 1.3 | Papp [5]: 5.1 10^-6 cm/s; ΔTm [6]: 0.74 °C; IC50 [7]: 5.7 µM
